According to ChEMBL document CHEMBL4373736, “Synthesis and biological evaluation of panaxatriol derivatives against myocardial ischemia/reperfusion injury in the rat” (Eur J Med Chem, 2020):
Activity calls are given as the source filed them. No cut-off for these calls is given here.

What was measured:
Rattus norvegicus [1] = assay: Cardioprotective activity in ig dosed Sprague-Dawley rat model of LAD coronary artery ligation-induced ischemia/reperfusion assessed as reduction in serum cardiac troponin1 level pretreated twice a day for 3 days and measured 24 hrs post-reperfusion; type: functional, organism-based
Rattus norvegicus [2] = assay: (§1) Cardioprotective activity in Sprague-Dawley rat model of LAD coronary artery ligation-induced ischemia/reperfusion assessed as infarct size of left ventricle size at 40 mg/kg, ig pretreated twice a day for 3 days and measured 24 hrs post-reperfusion by TTC staining based assay (reference value: 49.1 %); type: functional
Rattus norvegicus [3] = assay: Cardioprotective activity in ig dosed Sprague-Dawley rat model of LAD coronary artery ligation-induced ischemia/reperfusion assessed as change in myocardial structure at 10 to 40 mg/kg, ig pretreated twice a day for 3 days and measured 24 hrs post-reperfusion by hematoxylin and eosin staining based assay; type: functional, organism-based
Cardiac muscle cell [4] = assay: Cytoprotective activity against OGD/reperfusion induced injury in Sprague-Dawley rat cardiomyocytes assessed as effect on cell viability at 10 uM pretreated for 24 hrs followed by OGD for 2 hrs and subsequent reperfusion for 24 hrs (reference value: 43.9 to 45.4 +/- 1.1 %); type: functional
Cardiac muscle cell [5] = assay: Cytoprotective activity against OGD/reperfusion induced injury in Sprague-Dawley rat cardiomyocytes assessed as effect on cell viability at 1 uM pretreated for 24 hrs followed by OGD for 2 hrs and subsequent reperfusion for 24 hrs (reference value: 43.9 to 45.4 +/- 1.1 %); type: functional
Cardiac muscle cell [6] = assay: Cytotoxicity against Sprague-Dawley rat cardiomyocytes assessed as inhibition of cell growth at 10 uM treated for 50 hrs by MTT assay; type: cell-based
Cardiac muscle cell [7] = assay: Cytoprotective activity against OGD/reperfusion induced injury in Sprague-Dawley rat cardiomyocytes assessed as effect on cell viability at 0.1 uM pretreated for 24 hrs followed by OGD for 2 hrs and subsequent reperfusion for 24 hrs (reference value: 43.9 to 45.4 +/- 1.1 %); type: functional
Rattus norvegicus [8] = assay: Cardioprotective activity in ig dosed Sprague-Dawley rat model of LAD coronary artery ligation-induced ischemia/reperfusion assessed as myocardial cell swelling at 10 to 40 mg/kg, ig pretreated twice a day for 3 days and measured 24 hrs post-reperfusion by hematoxylin and eosin staining based assay; type: functional, organism-based
Rattus norvegicus [9] = assay: Cardioprotective activity in ig dosed Sprague-Dawley rat model of LAD coronary artery ligation-induced ischemia/reperfusion assessed as as infarct size of left ventricle size pretreated twice a day for 3 days and measured 24 hrs post-reperfusion by TTC staining based assay; type: functional, organism-based
Rattus norvegicus [10] = assay: as §1, with “20” for “40”; type: functional

| SMILES | inhibition (Rattus norvegicus [1]) | Activity (Rattus norvegicus [2]) [%] | Activity (Rattus norvegicus [3]) | Activity (Cardiac muscle cell [4]) [%] | Activity (Cardiac muscle cell [5]) [%] | Activity (Cardiac muscle cell [6]) | Activity (Cardiac muscle cell [7]) [%] | Activity (Rattus norvegicus [8]) | Activity (Rattus norvegicus [9]) | Activity (Rattus norvegicus [10]) [%] |
| --- | --- | --- | --- | --- | --- | --- | --- | --- | --- | --- |
| CC1(C)CCC[C@](C)([C@H]2CC[C@]3(C)[C@@H]2[C@H](O)C[C@@H]2[C@@]4(C)Cc5c(C(=O)O)noc5C(C)(C)[C@@H]4[C@H](O)C[C@]23C)O1 | Dose-dependent effect | 20.5 | inactive | 89.2 | 79.2 | Non-Toxic | 68.2 | inactive | Dose-dependent effect | – |
| C[C@H](CS)C(=O)N1CCC[C@H]1C(=O)O [CAPTOPRIL] | – | – | – | – | – | – | – | – | – | 34 |
